From article PMC4994520 (European journal of medicinal chemistry, 2012)
Where two headings read alike, the source gives them in different places.

What was measured:
PDE3B = PDE3B (Homo sapiens, UniProt Q13370); experiment: PDE3B inhibition, IMAP fluorescence polarization assay; type: biochemical
PDE10A = PDE10A (Homo sapiens, UniProt Q9Y233); experiment: PDE10A inhibition, IMAP fluorescence polarization assay; type: biochemical
PDE2A = PDE2A (Homo sapiens, UniProt O00408); experiment: PDE2A inhibition, IMAP fluorescence polarization assay; type: biochemical
PDE2A, sequence (O00408 whole entry): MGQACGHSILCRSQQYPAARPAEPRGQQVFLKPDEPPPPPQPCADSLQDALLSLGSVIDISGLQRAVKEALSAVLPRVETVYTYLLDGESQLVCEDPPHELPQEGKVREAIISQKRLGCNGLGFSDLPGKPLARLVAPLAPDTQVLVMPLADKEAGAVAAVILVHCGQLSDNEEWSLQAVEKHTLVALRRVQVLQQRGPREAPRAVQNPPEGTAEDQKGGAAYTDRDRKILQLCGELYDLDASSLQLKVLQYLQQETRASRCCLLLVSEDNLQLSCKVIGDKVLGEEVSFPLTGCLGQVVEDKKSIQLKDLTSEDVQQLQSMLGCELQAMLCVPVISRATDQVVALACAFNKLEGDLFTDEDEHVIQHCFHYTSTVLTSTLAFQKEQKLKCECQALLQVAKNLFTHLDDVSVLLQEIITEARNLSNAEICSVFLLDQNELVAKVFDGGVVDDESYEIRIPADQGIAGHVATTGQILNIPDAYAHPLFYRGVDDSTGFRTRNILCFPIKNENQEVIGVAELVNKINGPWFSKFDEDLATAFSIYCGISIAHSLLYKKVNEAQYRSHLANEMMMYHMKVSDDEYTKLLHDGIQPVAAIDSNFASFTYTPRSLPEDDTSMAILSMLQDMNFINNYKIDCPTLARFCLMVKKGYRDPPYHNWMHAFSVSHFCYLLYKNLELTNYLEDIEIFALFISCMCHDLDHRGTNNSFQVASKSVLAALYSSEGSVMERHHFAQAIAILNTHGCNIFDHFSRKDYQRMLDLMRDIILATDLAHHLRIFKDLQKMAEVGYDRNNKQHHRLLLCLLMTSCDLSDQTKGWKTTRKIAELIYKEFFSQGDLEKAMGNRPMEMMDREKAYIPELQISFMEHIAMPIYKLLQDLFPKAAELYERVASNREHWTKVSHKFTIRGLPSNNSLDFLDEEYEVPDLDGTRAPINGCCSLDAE

PDE3A = PDE3A (Homo sapiens, UniProt Q14432); experiment: PDE3A inhibition, IMAP fluorescence polarization assay; type: biochemical
PDE3A, sequence (Q14432 whole entry): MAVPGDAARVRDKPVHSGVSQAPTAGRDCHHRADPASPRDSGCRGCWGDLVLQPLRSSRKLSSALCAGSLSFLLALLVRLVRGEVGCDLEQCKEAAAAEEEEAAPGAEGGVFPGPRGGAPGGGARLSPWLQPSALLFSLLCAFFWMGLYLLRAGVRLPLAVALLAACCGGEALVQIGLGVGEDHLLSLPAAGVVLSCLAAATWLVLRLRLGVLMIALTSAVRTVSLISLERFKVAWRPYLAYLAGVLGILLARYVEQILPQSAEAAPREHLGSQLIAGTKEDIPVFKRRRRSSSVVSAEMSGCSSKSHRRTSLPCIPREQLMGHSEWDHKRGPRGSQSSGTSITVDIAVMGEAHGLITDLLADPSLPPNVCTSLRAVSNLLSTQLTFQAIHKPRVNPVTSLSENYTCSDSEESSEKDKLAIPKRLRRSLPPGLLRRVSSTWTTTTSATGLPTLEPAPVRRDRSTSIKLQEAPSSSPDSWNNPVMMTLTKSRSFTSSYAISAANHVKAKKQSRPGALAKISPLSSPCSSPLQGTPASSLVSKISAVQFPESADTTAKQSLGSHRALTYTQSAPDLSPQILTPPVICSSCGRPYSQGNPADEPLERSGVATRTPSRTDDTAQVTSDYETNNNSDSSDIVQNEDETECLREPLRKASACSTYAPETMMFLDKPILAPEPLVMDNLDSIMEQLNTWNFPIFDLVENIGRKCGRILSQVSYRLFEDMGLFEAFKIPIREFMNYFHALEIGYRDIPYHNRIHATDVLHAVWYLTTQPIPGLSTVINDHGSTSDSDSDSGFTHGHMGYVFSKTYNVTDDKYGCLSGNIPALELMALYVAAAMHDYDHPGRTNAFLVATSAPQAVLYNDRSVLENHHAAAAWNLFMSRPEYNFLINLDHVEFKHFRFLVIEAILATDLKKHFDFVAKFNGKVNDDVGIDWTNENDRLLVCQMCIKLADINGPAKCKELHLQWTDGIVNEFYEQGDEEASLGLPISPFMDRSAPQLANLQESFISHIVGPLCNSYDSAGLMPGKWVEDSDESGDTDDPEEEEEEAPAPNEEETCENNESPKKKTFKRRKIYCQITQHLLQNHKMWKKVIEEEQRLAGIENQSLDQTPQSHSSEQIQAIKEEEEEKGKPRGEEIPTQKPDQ

PDE11A = PDE11A (Homo sapiens, UniProt Q9HCR9); experiment: PDE11A inhibition, IMAP fluorescence polarization assay; type: biochemical; conditions: for selectivity profile (selectivity index) PDE5 versus PDE11: cGMP as the substrate
PDE1A = PDE1A (Homo sapiens, UniProt P54750); experiment: PDE1A inhibition, IMAP fluorescence polarization assay; type: biochemical
PDE1A, sequence (P54750 whole entry): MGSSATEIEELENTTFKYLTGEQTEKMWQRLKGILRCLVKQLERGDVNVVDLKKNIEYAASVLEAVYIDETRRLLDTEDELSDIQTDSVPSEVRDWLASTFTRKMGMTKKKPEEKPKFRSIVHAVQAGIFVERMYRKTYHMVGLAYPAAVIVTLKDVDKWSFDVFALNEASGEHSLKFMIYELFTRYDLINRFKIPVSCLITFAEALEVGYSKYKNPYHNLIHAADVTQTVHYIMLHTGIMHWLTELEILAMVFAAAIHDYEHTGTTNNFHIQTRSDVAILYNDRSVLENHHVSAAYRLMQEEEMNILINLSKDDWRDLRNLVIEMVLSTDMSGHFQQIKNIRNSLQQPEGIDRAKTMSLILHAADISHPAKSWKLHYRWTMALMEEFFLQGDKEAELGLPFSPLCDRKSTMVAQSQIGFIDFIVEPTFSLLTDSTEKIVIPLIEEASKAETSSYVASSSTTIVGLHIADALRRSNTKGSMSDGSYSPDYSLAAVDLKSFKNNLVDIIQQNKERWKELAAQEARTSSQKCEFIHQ

PDE9A = PDE9A (Homo sapiens, UniProt O76083); experiment: PDE9A inhibition, IMAP fluorescence polarization assay; type: biochemical
PDE9A, sequence (O76083 whole entry): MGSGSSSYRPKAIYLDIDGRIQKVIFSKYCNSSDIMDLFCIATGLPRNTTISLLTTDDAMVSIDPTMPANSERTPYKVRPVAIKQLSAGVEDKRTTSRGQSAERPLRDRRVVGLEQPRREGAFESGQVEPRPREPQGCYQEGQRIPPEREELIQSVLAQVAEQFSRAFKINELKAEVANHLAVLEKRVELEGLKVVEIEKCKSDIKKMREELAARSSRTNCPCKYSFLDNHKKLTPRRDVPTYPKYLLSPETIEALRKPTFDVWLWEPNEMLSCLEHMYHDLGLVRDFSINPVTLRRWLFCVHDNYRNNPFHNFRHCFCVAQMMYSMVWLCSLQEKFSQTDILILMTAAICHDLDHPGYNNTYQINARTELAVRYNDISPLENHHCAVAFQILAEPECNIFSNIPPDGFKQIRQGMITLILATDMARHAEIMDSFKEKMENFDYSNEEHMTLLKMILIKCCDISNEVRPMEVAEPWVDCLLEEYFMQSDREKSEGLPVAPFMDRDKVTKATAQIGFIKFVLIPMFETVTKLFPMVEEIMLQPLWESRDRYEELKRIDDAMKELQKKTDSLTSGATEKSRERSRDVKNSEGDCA

human PDE5 [1] = molecular target: T1, human PDE5 (Homo sapiens, UniProt O76074); experiment: PDE5 inhibition, IMAP fluorescence polarization phosphodiesterase assay; type: biochemical; conditions: for inhibition at 10 µM: read-out: % PDE5 inhibition at 10 μM
human PDE5 [2] = molecular target: T1, human PDE5; conditions: tadalafil and earlier analogues, Table 1; cited from earlier work
[3] = read-out: PDE3B inhibition IC50 μM, substrate cGMP
[4] = PDE10A inhibition IC50 μM, substrate cAMP
[5] = PDE10A inhibition IC50 μM, substrate cGMP
[6] = read-out: PDE2A inhibition IC50 μM, substrate cGMP
[7] = read-out: PDE3A inhibition IC50 μM, substrate cGMP
[8] = PDE11A inhibition IC50 μM, substrate cAMP
[9] = PDE11A inhibition IC50 μM, substrate cGMP
[10] = read-out: PDE1A inhibition IC50 μM, substrate cGMP

PDE10A, sequence (Q9Y233 290-1055 limits assumed): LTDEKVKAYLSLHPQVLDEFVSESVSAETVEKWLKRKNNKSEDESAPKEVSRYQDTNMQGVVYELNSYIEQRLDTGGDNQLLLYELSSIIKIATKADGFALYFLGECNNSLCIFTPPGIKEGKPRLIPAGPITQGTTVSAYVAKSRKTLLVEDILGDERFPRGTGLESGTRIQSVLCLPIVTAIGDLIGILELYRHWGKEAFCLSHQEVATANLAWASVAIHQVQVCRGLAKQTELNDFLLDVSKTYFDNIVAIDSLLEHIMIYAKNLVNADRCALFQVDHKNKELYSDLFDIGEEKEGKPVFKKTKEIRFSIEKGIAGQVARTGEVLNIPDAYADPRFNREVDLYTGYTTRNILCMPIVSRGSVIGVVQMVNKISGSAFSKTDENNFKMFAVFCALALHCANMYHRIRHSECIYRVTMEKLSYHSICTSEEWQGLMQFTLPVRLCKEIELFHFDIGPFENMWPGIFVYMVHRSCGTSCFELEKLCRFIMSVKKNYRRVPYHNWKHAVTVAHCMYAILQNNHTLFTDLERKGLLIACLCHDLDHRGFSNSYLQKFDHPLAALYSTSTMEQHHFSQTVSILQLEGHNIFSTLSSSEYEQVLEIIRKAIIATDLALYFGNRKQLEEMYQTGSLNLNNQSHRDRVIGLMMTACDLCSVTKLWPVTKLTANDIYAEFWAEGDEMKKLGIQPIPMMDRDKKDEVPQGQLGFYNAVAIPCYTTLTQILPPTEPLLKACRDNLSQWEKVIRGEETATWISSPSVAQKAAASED
PDE3B, sequence (Q13370 whole entry): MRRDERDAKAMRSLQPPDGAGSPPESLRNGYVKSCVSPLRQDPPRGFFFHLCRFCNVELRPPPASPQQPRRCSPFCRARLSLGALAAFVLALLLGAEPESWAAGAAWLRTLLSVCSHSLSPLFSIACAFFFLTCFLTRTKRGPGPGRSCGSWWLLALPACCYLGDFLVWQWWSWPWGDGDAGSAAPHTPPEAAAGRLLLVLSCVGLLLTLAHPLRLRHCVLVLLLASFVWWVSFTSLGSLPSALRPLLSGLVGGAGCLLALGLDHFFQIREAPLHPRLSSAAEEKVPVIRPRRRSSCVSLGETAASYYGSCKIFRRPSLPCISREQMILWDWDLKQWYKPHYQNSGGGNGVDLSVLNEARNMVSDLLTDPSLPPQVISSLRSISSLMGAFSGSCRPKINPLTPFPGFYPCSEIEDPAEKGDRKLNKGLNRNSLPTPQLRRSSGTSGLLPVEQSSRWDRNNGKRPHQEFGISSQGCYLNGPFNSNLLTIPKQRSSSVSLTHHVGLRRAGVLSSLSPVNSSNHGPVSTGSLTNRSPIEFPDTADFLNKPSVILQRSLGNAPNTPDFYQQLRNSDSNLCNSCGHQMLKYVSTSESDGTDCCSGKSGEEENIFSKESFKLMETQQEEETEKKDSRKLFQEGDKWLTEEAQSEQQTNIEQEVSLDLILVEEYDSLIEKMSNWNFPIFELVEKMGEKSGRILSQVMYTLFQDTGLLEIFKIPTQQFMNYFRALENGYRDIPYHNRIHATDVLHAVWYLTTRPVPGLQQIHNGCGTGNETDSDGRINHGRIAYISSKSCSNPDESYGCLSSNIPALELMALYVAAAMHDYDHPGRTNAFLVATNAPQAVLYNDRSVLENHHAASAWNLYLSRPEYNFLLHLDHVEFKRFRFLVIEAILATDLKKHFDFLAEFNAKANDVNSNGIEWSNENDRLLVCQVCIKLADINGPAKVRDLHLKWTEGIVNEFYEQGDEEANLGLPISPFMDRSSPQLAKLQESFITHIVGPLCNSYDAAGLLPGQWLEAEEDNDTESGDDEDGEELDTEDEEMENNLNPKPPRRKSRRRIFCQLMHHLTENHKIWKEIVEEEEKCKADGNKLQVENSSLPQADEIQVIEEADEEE

Structure (SMILES) | IC50 (PDE3B) | IC50 (PDE3B; [3]) | IC50 (PDE10A; [4]) | IC50 (PDE10A; [5]) | IC50 (PDE2A) | IC50 (PDE2A; [6]) | IC50 (PDE3A) | IC50 (PDE3A; [7]) | IC50 (PDE11A; [8]) | IC50 (PDE11A; [9]) | selectivity profile (selectivity index) PDE5 versus PDE11 (PDE11A) | IC50 (PDE1A) | IC50 (PDE1A; [10]) | IC50 (PDE9A) | IC50 (human PDE5 [1]) | inhibition at 10 µM (human PDE5 [1]) | also measured
CCN1C(=O)[C@@H]2Cc3c([nH]c4ccccc34)[C@@H](c3ccc(Br)cc3)N2C1=O [Compound 8, (5R,11aS)-5-(4-Bromophenyl)-2-ethyl-5,6,11,11a-tetrahydro-1H-imidazo[1′,5′:1,6]pyrido[3,4-b]indole-1,3(2H)-dione] | > 50 µM | > 50 µM | > 50 µM | > 50 µM | > 50 µM | > 50 µM | > 50 µM | > 50 µM | 44 µM | 35.7 µM | 700 | > 50 µM | > 50 µM | > 50 µM | 0.051 µM | 101% | –
CN1CC(=O)N2[C@H](c3ccc(Br)cc3)c3[nH]c4ccccc4c3C[C@@H]2C1=O [Compound 25, (6R,12aR)-6-(4-Bromophenyl)-2-methyl-2,3,6,7,12,12a-hexahydropyrazino [1′,2′:1,6]pyrido[3,4-b]indole-1,4-dione] | > 50 µM | > 50 µM | > 50 µM | 41.7 µM | > 50 µM | > 50 µM | > 50 µM | > 50 µM | 0.6 µM | 0.27 µM | 14 | > 50 µM | > 50 µM | > 50 µM | 0.019 µM | 98% | –
CN1CC(=O)N2[C@H](c3ccc(Br)cc3)c3[nH]c4ccccc4c3C[C@H]2C1=O [Compound 28, (6R,12aS)-6-(4-Bromophenyl)-2-methyl-2,3,6,7,12,12a-hexahydropyrazino [1′,2′:1,6]pyrido[3,4-b]indole-1,4-dione] | > 50 µM | > 50 µM | > 50 µM | > 50 µM | > 50 µM | > 50 µM | > 50 µM | > 50 µM | 1.3 µM | 1.13 µM | 94 | > 50 µM | > 50 µM | > 50 µM | 0.012 µM | 91% | –
CCN1CC(=O)N2[C@H](c3ccc(Br)cc3)c3[nH]c4ccccc4c3C[C@@H]2C1=O [Compound 29, (6R,12aR)-2-Ethyl-6-(4-bromophenyl)-2,3,6,7,12,12a-hexahydropyrazino [1′,2′:1,6]pyrido[3,4-b]indole-1,4-dione] | > 50 µM | > 50 µM | 26.1 µM | 14.7 µM | > 50 µM | > 50 µM | > 50 µM | > 50 µM | 0.3 µM | 0.27 µM | 90 | > 50 µM | > 50 µM | > 50 µM | 0.003 µM | 96% | times improved activity compared to five member congener 5 (human PDE5 [1]; PDE5 IC50, 29 versus 5): 1000 times
CCCCN1CC(=O)N2[C@H](c3ccc(Br)cc3)c3[nH]c4ccccc4c3C[C@@H]2C1=O [Compound 33] | – | > 50 µM | – | – | – | > 50 µM | – | > 50 µM | – | – | 67 | – | > 50 µM | – | – | – | IC50 (PDE3B; read-out: PDE3B inhibition IC50 μM, substrate cAMP): > 50 µM; IC50 (PDE10A; read-out: PDE10A inhibition IC50 μM, substrate cAMP): > 50 µM; IC50 (PDE10A; read-out: PDE10A inhibition IC50 μM, substrate cGMP): > 50 µM; IC50 (PDE2A; read-out: PDE2A inhibition IC50 μM, substrate cAMP): > 50 µM; IC50 (PDE3A; read-out: PDE3A inhibition IC50 μM, substrate cAMP): > 50 µM; IC50 (PDE11A; read-out: PDE11A inhibition IC50 μM, substrate cAMP): 1.2 µM; IC50 (PDE11A; read-out: PDE11A inhibition IC50 μM, substrate cGMP): 0.6 µM; IC50 (PDE1A; read-out: PDE1A inhibition IC50 μM, substrate cAMP): > 50 µM; IC50 (PDE9A; read-out: PDE9A inhibition IC50 μM, substrate cGMP): > 50 µM; % PDE5 inhibition at 10 μM (human PDE5 [1]; 10 μM, triplicate): 87%; IC50 (human PDE5 [1]; read-out: IC50 μM (PDE5), 8 concentrations 1 nM–10 μM): 0.009 µM; IC50 (human PDE5 [1]; read-out: PDE5A inhibition IC50 μM, substrate cAMP (as printed in sub-head)): 0.009 µM
CC(C)(C)N1CC(=O)N2[C@@H](c3ccc(Br)cc3)c3[nH]c4ccccc4c3C[C@H]2C1=O [Compound 39, (6S,12aS)-6-(4-Bromophenyl)-2-tert-butyl-2,3,6,7,12,12a-hexahydropyrazino[1′,2′:1,6]pyrido[3,4-b]indole-1,4-dione] | – | – | – | – | – | – | – | – | – | – | – | – | – | – | – | 12% | –
CC(C)(C)N1CC(=O)N2[C@H](c3ccc(Br)cc3)c3[nH]c4ccccc4c3C[C@H]2C1=O [Compound 40, (6R,12aS)-6-(4-Bromophenyl)-2-tert-butyl-2,3,6,7,12,12a-hexahydropyrazino[1′,2′:1,6]pyrido[3,4-b]indole-1,4-dione] | – | – | – | – | – | – | – | – | – | – | – | – | – | – | – | 21% | –
CN1CC(=O)N2[C@H](c3ccc4c(c3)OCO4)c3[nH]c4ccccc4c3C[C@@H]2C1=O [Compound I, tadalafil, reference compound] | > 50 µM | > 50 µM | > 50 µM | > 50 µM | > 50 µM | > 50 µM | > 50 µM | > 50 µM | – | – | – | > 50 µM | > 50 µM | > 50 µM | – | – | % PDE5 inhibition at 10 μM (human PDE5 [2]): 100%
